Data reported in publication PMC6516660, “Construction of a pathway to C50-ε-carotene” (PLoS ONE, 2019).
Residue numbers refer to the chain shown, from its start.

Assays:
Assay in all cases: carotenoid production in E. coli, HPLC-PDA-MS
Type in all cases: cell-based
LsE = target: T1, LsE (Lactuca sativa, UniProt Q9AXK7); conditions: E. coli making C40-lycopene; product ε,ε-carotene
T1 construct: pUCara plasmid, expressed in E. coli XL1-Blue with carotenoid pathway enzymes
T1 sequence (Q9AXK7 1-533 limits assumed): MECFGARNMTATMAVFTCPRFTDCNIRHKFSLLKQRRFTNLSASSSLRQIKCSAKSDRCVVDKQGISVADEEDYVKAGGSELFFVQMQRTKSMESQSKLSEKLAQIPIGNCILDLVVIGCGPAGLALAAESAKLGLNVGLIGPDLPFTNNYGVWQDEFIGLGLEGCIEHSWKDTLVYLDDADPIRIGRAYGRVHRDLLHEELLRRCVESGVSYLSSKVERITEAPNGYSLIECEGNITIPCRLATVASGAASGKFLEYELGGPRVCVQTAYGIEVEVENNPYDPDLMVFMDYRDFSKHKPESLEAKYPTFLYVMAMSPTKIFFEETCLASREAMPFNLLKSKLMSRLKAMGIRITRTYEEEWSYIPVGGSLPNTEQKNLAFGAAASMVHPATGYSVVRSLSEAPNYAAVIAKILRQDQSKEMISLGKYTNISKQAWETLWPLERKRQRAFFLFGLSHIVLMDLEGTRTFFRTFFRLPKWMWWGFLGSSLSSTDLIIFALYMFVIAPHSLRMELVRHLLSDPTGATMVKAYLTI

AtE (At-y2) [1] = target: T2, AtE (At-y2) (Arabidopsis thaliana, UniProt Q38932, L448H); conditions: E. coli making C40-lycopene
T2 construct: gene LUT2; full-length (transit peptide kept), pUCara plasmid, expressed in E. coli XL1-Blue with carotenoid pathway enzymes
T2 sequence (Q38932 1-524 L448H): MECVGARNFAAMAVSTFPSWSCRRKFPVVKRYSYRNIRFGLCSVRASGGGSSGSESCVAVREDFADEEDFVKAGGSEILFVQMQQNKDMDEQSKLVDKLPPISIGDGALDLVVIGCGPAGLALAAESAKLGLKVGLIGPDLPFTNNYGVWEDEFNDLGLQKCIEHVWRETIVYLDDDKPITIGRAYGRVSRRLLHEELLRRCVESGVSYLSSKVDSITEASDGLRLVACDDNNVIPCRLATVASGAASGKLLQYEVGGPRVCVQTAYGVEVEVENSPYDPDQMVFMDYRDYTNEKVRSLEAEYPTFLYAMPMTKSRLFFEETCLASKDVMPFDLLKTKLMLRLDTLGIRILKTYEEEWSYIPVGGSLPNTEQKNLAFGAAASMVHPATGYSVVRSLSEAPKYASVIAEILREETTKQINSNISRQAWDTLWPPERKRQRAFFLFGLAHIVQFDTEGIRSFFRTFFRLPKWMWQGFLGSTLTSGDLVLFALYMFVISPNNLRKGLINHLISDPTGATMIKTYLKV

AtE (At-y2) [2] = target: T3, AtE (At-y2) (Arabidopsis thaliana, UniProt Q38932)
T3 construct: gene LUT2; full-length (transit peptide kept), pUCara plasmid, expressed in E. coli XL1-Blue with carotenoid pathway enzymes
T3 sequence (Q38932 1-524): T2 sequence (Q38932 1-524 L448H) with H448L

CC(C)=CCC/C(C)=C/C=C/C(C)=C/C=C/C(C)=C/C=C/C=C(C)/C=C/C=C(C)/C=C/C=C(\C)CCC=C(C)C [C40-lycopene]
carotenoid production in E. coli, HPLC-PDA-MS (LsE): LsE could equally and efficiently act on both sides of C40-lycopene (Fig 3B)
carotenoid production in E. coli, HPLC-PDA-MS (AtE (At-y2) [1]): very subtle effect (if not none) of L448H also in the natural C40 pathway
carotenoid production in E. coli, HPLC-PDA-MS (AtE (At-y2) [2]; E. coli making C40-lycopene, product δ-carotene (ε,ψ-carotene)): this enzyme fully consumed its natural substrate C40-lycopene and yielded ε, ψ-carotene

CC(C)=CCC/C(C)=C/C=C/C(C)=C/C=C/C(C)=C/C=C/C(C)=C/C=C/C=C(C)/C=C/C=C(C)/C=C/C=C(C)/C=C/C=C(\C)CCC=C(C)C [C50-lycopene]
carotenoid production in E. coli, HPLC-PDA-MS (AtE (At-y2) [2]; E. coli making C50-lycopene, TB medium, L-arabinose induction, product C50-ε,ε-carotene): AtE cyclized both ends of the C50-lyopene (Fig 2C)
